From patent US7491794B2, “Macrocyclic compounds as inhibitors of viral replication” (Intermune, Inc., priority 2003, dated 2009)

What was measured:
[1] = tested on: HCV sub-genomic replicon, GS4.3; assay: Quantitation by ELISA of NPTII in the HCV sub-genomic replicon, GS4.3, Section B; assay type: cell-based; conditions: Hepatitis C virus; GS4.3 cells, 72 h incubation; read-out: Replicon EC50
Procedure, shortened: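 GS4.3 cells (HuH-7 carrying HCV 1377/NS3-3′ replicon) were treated 72 h at 37 °C with inhibitors in 3-fold dilutions, 1% DMSO, no G418. Lysate NPTII was measured by ELISA (TMB, 450 nm). Signal as % of DMSO control; EC50 from 4-parameter fit.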

NS3-NS4A protease = target: T1, NS3-NS4A protease (Hepatitis C virus genotype 1a, UniProt P27958); assay: NS3-NS4A protease assay (NS3 inhibition assay, RETS1 substrate), Section B; assay type: biochemical; conditions: read-out: NS3-NS4A IC50
T1 construct: Recombinant E. coli or Baculovirus full-length NS3 was diluted to 3.33 μM with assay buffer; made in house; host or cells: E. coli or baculovirus (BV) system
T1 sequence (P27958 1027-1657): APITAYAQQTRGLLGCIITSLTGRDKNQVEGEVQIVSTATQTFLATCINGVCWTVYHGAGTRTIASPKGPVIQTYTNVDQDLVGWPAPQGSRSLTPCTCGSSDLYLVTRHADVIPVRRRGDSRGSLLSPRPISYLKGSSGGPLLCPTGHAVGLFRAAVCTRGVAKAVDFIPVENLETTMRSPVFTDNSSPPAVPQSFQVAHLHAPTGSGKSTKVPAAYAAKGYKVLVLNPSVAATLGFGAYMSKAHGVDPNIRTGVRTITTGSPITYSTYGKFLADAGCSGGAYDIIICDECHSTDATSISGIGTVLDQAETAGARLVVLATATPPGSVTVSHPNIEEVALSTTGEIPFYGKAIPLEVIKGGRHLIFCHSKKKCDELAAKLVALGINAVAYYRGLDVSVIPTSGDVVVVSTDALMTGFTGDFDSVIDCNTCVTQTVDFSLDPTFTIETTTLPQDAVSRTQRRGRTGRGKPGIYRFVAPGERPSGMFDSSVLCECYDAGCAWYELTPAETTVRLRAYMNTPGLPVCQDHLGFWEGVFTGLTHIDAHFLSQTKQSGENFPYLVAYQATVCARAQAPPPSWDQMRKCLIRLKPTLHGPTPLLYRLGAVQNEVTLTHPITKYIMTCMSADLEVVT
Procedure, shortened: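 Full-length NS3 (E. coli or baculovirus) precomplexed with excess NS4A-2 peptide, run at 2 nM (E. coli) or 3 nM (BV) NS3; compounds pre-incubated 10 min at room temperature before RETS1 substrate. Fluorescence (ex 335/em 495 nm) read kinetically 30 min; IC50 from four-parameter fit, converted to Ki via Ki=IC50/(1+[S]/Km).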

`CC(C)(C)OC(=O)N[C@H]1CCCCC/C=C\[C@@H]2C[C@@]2(C(=O)NS(=O)(=O)C2CC2)NC(=O)[C@@H]2C[C@@H](OC(=O)N3Cc4cccc(F)c4C3)CN2C1=O` [AR00334191, (1S,4R,6S,14S,18R)-4-Fluoro-1,3-dihydro-isoindole-2-carboxylic acid 14-tert-butoxycarbonylamino-4-cyclopropanesulfonylaminocarbonyl-2,15-dioxo-3,16-diaza-tricyclo[14.3.0.0^4,6]nonadec-7-en-18-yl ester] showed an EC50 [1] of under 100 nM and an IC50 (NS3-NS4A protease) of under 100 nM.

Work on `O=C(N[C@H]1CCCCC/C=C\[C@@H]2C[C@@]2(C(=O)NS(=O)(=O)C2CC2)NC(=O)[C@@H]2C[C@@H](OC(=O)N3Cc4ccc(Cl)cc4C3)CN2C1=O)OC1CCCC1` [AR00334218, (1S,4R,6S,14S,18R)-5-Chloro-1,3-dihydro-isoindole-2-carboxylic acid 14-cyclopentyloxycarbonylamino-4-cyclopropanesulfonylaminocarbonyl-2,15-dioxo-3,16-diaza-tricyclo[14.3.0.0^4,6]nonadec-7-en-18-yl ester] yielded an EC50 [1] of under 100 nM and an IC50 (NS3-NS4A protease) of under 100 nM.

`O=C(N[C@H]1CCCCC/C=C\[C@@H]2C[C@@]2(C(=O)NS(=O)(=O)C2CC2)NC(=O)[C@@H]2C[C@@H](OC(=O)N3Cc4ccc(Cl)cc4C3)CN2C1=O)O[C@H]1CCOC1` [AR00334220, (1S,4R,6S,14S,18R)-5-Chloro-1,3-dihydro-isoindole-2-carboxylic acid 4-cyclopropanesulfonylaminocarbonyl-2,15-dioxo-14-(tetrahydro-furan-3-yloxycarbonylamino)-3,16-diaza-tricyclo[14.3.0.0^4,6]nonadec-7-en-18-yl ester] showed an EC50 [1] of under 1000 nM and an IC50 (NS3-NS4A protease) of under 100 nM.

Work on `O=C(N[C@H]1CCCCC/C=C\[C@@H]2C[C@@]2(C(=O)NS(=O)(=O)C2CC2)NC(=O)[C@@H]2C[C@@H](OC(=O)N3Cc4ccc(Cl)cc4C3)CN2C1=O)OCCF` [AR00334222, (1S,4R,6S,14S,18R)-5-Chloro-1,3-dihydro-isoindole-2-carboxylic acid 4-cyclopropanesulfonylaminocarbonyl-14-(2-fluoro-ethoxycarbonylamino)-2,15-dioxo-3,16-diaza-tricyclo[14.3.0.0^4,6]nonadec-7-en-18-yl ester] yielded an EC50 [1] of under 100 nM and an IC50 (NS3-NS4A protease) of under 100 nM.

`CC(C)(C)CC(=O)N[C@H]1CCCCC/C=C\[C@@H]2C[C@@]2(C(=O)NS(=O)(=O)C2CC2)NC(=O)[C@@H]2C[C@@H](OC(=O)N3Cc4ccc(Cl)cc4C3)CN2C1=O` [AR00334225, (1S,4R,6S,14S,18R)-5-Chloro-1,3-dihydro-isoindole-2-carboxylic acid 4-cyclopropanesulfonylaminocarbonyl-14-(3,3-dimethyl-butyrylamino)-2,15-dioxo-3,16-diaza-tricyclo[14.3.0.0^4,6]nonadec-7-en-18-yl ester] showed an EC50 [1] of under 1000 nM and an IC50 (NS3-NS4A protease) of under 100 nM.

With `O=C(CC1CCCC1)N[C@H]1CCCCC/C=C\[C@@H]2C[C@@]2(C(=O)NS(=O)(=O)C2CC2)NC(=O)[C@@H]2C[C@@H](OC(=O)N3Cc4ccc(Cl)cc4C3)CN2C1=O` [AR00334226, (1S,4R,6S,14S,18R)-5-Chloro-1,3-dihydro-isoindole-2-carboxylic acid 14-(2-cyclopentyl-acetylamino)-4-cyclopropanesulfonylaminocarbonyl-2,15-dioxo-3,16-diaza-tricyclo[14.3.0.0^4,6]nonadec-7-en-18-yl ester] the EC50 [1] was under 100 nM and the IC50 (NS3-NS4A protease) was under 100 nM.

`CC(=O)Nc1nnc(S(=O)(=O)NC(=O)[C@@]23C[C@H]2/C=C\CCCCC[C@H](NC(=O)OC(C)(C)C)C(=O)N2C[C@H](OC(=O)N4Cc5ccccc5C4)C[C@H]2C(=O)N3)s1` [AR00334247, (1S,4R,6S,14S,18R)-1,3-Dihydro-isoindole-2-carboxylic acid 4-(5-acetylamino-[1,3,4]thiadiazole-2-sulfonylaminocarbonyl)-14-tert-butoxycarbonylamino-2,15-dioxo-3,16-diaza-tricyclo[14.3.0.0^4,6]nonadec-7-en-18-yl ester] gave an EC50 [1] of under 1000 nM and an IC50 (NS3-NS4A protease) of under 100 nM.

Work on `CC(C)(C)OC(=O)N[C@H]1CCCCC/C=C\[C@@H]2C[C@@]2(C(=O)NS(=O)(=O)c2ccc(C#N)cc2)NC(=O)[C@@H]2C[C@@H](OC(=O)N3Cc4ccccc4C3)CN2C1=O` [AR00334248, (1S,4R,6S,14S,18R)-1,3-Dihydro-isoindole-2-carboxylic acid 14-tert-butoxycarbonylamino-4-(4-cyano-benzenesulfonylaminocarbonyl)-2,15-dioxo-3,16-diaza-tricyclo[14.3.0.0^4,6]nonadec-7-en-18-yl ester] yielded an EC50 [1] of under 1000 nM and an IC50 (NS3-NS4A protease) of under 100 nM.

Compound `CC(C)(C)OC(=O)N[C@H]1CCCCC/C=C\[C@@H]2C[C@@]2(C(=O)NS(=O)(=O)c2ccc([N+](=O)[O-])cc2)NC(=O)[C@@H]2C[C@@H](OC(=O)N3Cc4ccccc4C3)CN2C1=O` [AR00334249, (1S,4R,6S,14S,18R)-1,3-Dihydro-isoindole-2-carboxylic acid 14-tert-butoxycarbonylamino-4-(4-nitro-benzenesulfonylaminocarbonyl)-2,15-dioxo-3,16-diaza-tricyclo[14.3.0.0^4,6]nonadec-7-en-18-yl ester] has an EC50 [1] of under 1000 nM and an IC50 (NS3-NS4A protease) of under 100 nM.

In the case of `CC(C)(C)OC(=O)N[C@H]1CCCCC/C=C\[C@@H]2C[C@@]2(C(=O)NS(=O)(=O)c2ccc(Cl)cc2)NC(=O)[C@@H]2C[C@@H](OC(=O)N3Cc4ccccc4C3)CN2C1=O` [AR00334250, (1S,4R,6S,14S,18R)-1,3-Dihydro-isoindole-2-carboxylic acid 14-tert-butoxycarbonylamino-4-(4-chloro-benzenesulfonylaminocarbonyl)-2,15-dioxo-3,16-diaza-tricyclo[14.3.0.0^4,6]nonadec-7-en-18-yl ester], the EC50 [1] is reported as under 100 nM and the IC50 (NS3-NS4A protease) is reported as under 100 nM.

For `CC(C)(C)OC(=O)N[C@H]1CCCCC/C=C\[C@@H]2C[C@@]2(C(=O)NS(=O)(=O)C2CC2)NC(=O)[C@@H]2C[C@@H](OC(=O)N3Cc4ccc(N)cc4C3)CN2C1=O` [AR00334286, (1S,4R,6S,14S,18R)-5-Amino-1,3-dihydro-isoindole-2-carboxylic acid 14-tert-butoxycarbonylamino-4-cyclopropanesulfonylaminocarbonyl-2,15-dioxo-3,16-diaza-tricyclo[14.3.0.0^4,6]nonadec-7-en-18-yl ester], the EC50 [1] was under 100 nM and the IC50 (NS3-NS4A protease) was under 100 nM.

With `COc1ccc2c(c1)CN(C(=O)O[C@@H]1C[C@H]3C(=O)N[C@]4(C(=O)NS(=O)(=O)C5CC5)C[C@H]4/C=C\CCCCC[C@H](NC(=O)OC(C)(C)C)C(=O)N3C1)C2` [AR00334314, (1S,4R,6S,14S,18R)-5-Methoxy-1,3-dihydro-isoindole-2-carboxylic acid 14-tert-butoxycarbonylamino-4-cyclopropanesulfonylaminocarbonyl-2,15-dioxo-3,16-diaza-tricyclo[14.3.0.0^4,6]nonadec-7-en-18-yl ester] the EC50 [1] was under 100 nM and the IC50 (NS3-NS4A protease) was under 100 nM.

Compound `COCC1c2ccc(OC)cc2CCN1C(=O)O[C@@H]1CC2C(=O)N[C@]3(C(=O)NS(=O)(=O)C4CC4)C[C@H]3/C=C\CCCCC[C@H](NC(=O)OC(C)(C)C)C(=O)N2C1` (stereo partly drawn) [AR00334339, (1S,4R,6S,14S,18R)-6-Methoxy-1-methoxymethyl-3,4-dihydro-1H-isoquinoline-2-carboxylic acid 14-tert-butoxycarbonylamino-4-cyclopropanesulfonylaminocarbonyl-2,15-dioxo-3,16-diaza-tricyclo[14.3.0.0^4,6]nonadec-7-en-18-yl ester] has an EC50 [1] of under 100 nM and an IC50 (NS3-NS4A protease) of under 100 nM.

`COc1ccc(S(=O)(=O)NC(=O)[C@@]23C[C@H]2/C=C\CCCCC[C@H](NC(=O)OC(C)(C)C)C(=O)N2C[C@H](OC(=O)N4Cc5ccccc5C4)C[C@H]2C(=O)N3)cc1` [AR00334341, (1S,4R,6S,14S,18R)-1,3-Dihydro-isoindole-2-carboxylic acid 14-tert-butoxycarbonylamino-4-(4-methoxy-benzenesulfonylaminocarbonyl)-2,15-dioxo-3,16-diaza-tricyclo[14.3.0.0^4,6]nonadec-7-en-18-yl ester] showed an EC50 [1] of under 100 nM and an IC50 (NS3-NS4A protease) of under 100 nM.

With `CC(C)(C)OC(=O)N[C@H]1CCCCC/C=C\[C@@H]2C[C@@]2(C(=O)NS(=O)(=O)C2CC2)NC(=O)[C@@H]2C[C@@H](OC(=O)N3Cc4cccc(N)c4C3)CN2C1=O` [AR00334385, (1S,4R,6S,14S,18R)-4-Amino-1,3-dihydro-isoindole-2-carboxylic acid 14-tert-butoxycarbonylamino-4-cyclopropanesulfonylaminocarbonyl-2,15-dioxo-3,16-diaza-tricyclo[14.3.0.0^4,6]nonadec-7-en-18-yl ester] the EC50 [1] was under 100 nM and the IC50 (NS3-NS4A protease) was under 100 nM.

With `CC(C)(C)OC(=O)N[C@H]1CCCCC/C=C\[C@@H]2C[C@@]2(C(=O)NS(=O)(=O)C2CC2)NC(=O)[C@@H]2C[C@@H](OC(=O)N3Cc4c(F)ccc(F)c4C3)CN2C1=O` [AR00334399, (1S,4R,6S,14S,18R)-4,7-Difluoro-1,3-dihydro-isoindole-2-carboxylic acid 14-tert-butoxycarbonylamino-4-cyclopropanesulfonylaminocarbonyl-2,15-dioxo-3,16-diaza-tricyclo[14.3.0.0^4,6]nonadec-7-en-18-yl ester] the EC50 [1] was under 100 nM and the IC50 (NS3-NS4A protease) was under 100 nM.

Work on `CC(C)(C)NC(=O)N[C@H]1CCCCC/C=C\[C@@H]2C[C@@]2(C(=O)NS(=O)(=O)C2CC2)NC(=O)[C@@H]2C[C@@H](OC(=O)N3Cc4cccc(F)c4C3)CN2C1=O` [AR00338066, (1S,4R,6S,14S,18R)-4-Fluoro-1,3-dihydro-isoindole-2-carboxylic acid 14-(3-tert-butyl-ureido)-4-cyclopropanesulfonylaminocarbonyl-2,15-dioxo-3,16-diaza-tricyclo[14.3.0.0^4,6]nonadec-7-en-18-yl ester] yielded an EC50 [1] of under 100 nM and an IC50 (NS3-NS4A protease) of under 100 nM.
